The record followed here is publication PMC10743086, “Immunofluorescence-Based Assay for High-Throughput Analysis of Multidrug Resistance Markers in Non-Small Cell Lung Carcinoma Patient-Derived Cells” (Diagnostics, 2023).

What is called IC50 is the concentration needed to halve the response being measured.

Assay type in all cases: cell-based, human
The test system of assay [1] is Non-cancer cells (CK8/18-) of patient-derived NSCLC cultures. Nature of the assay: Cytotoxicity in patient-derived NSCLC cultures, non-cancer cells. The settings on record: 7 days treatment. As for the experimental part:
(§1) Tissue samples were collected during surgery, and the NSCLC diagnosis, histological grade, stage, necrosis, and lymph node invasion status were determined by histopathological analysis. […] The surgical specimens were placed in a sterile tube containing antibiotic-antimycotic solution (Sigma-Aldrich Chemie GmbH, Taufkirchen, Germany) and immediately transported to the research laboratory for further processing.
(§2) Upon arrival, the tissue was manually chopped with a surgical blade in a Petri dish under sterile conditions. The samples were cut into 3–5 mm pieces and further dissociated using the Tumor Dissociation Kit (Miltenyi Biotec, Bergisch Gladbach, Germany). The Tumor Dissociation Kit was used to dissociate the cells from the tumor tissue according to the manufacturer’s instructions. The samples were incubated in a 37 °C orbital shaker (KS 4000 ic control, IKA, Königswinter, Germany) at 300 rpm for 90 min. After incubation, the dissociated tissue was placed in DMEM/Ham’s F12 (1:3 ratio) growth medium supplemented with 5% fetal bovine serum (Corning, NY, USA), antibiotic-antimycotic solution, 4 µg/mL hydrocortisone (Sigma-Aldrich Chemie GmbH, Taufkirchen, Germany), 1 µg/mL insulin (Sigma-Aldrich Chemie GmbH, Taufkirchen, Germany), 10 ng/mL epidermal growth factor (BioLegend, San Diego, CA, USA), and 24 µg/mL adenine (Sigma-Aldrich Chemie GmbH, Taufkirchen, Germany). The DMEM and Ham’s F12 growth media were purchased from Sigma-Aldrich Chemie GmbH (Taufkirchen, Germany).
(§3) The dissociated tissue was cultured in T-25 cell culture flasks until cell attachment was observed before the medium was replaced. If no cell attachment was achieved within 7 days, the sample was discarded. Successful patient-derived cultures were maintained at 37 °C in a humidified atmosphere with 5% CO2 and grown to confluence before undergoing further experiments. […] Partial trypsinization was performed by detaching the fibroblast-like cells with 1 mL of 0.05% trypsin for 1 min at 37 °C, followed by 2 min at room temperature (RT).
(§4) Vinorelbine and pemetrexed were purchased from Selleckchem (Houston, TX, USA). Carboplatin, cisplatin, docetaxel, etoposide, gemcitabine, gefitinib, and paclitaxel were purchased from Sigma-Aldrich Chemie GmbH (Taufkirchen, Germany). The cisplatin, carboplatin, and gemcitabine were dissolved in sterile water, while the etoposide, docetaxel, vinorelbine, paclitaxel, gefitinib, and pemetrexed were dissolved in DMSO and stored at −20 °C. Before treatment, all the stock solutions were freshly diluted in sterile water.
(§5) The primary cells were seeded in black, clear bottom 384-well cell culture microplates (Thermo Fisher Scientific, Waltham, MA, USA) in 50 µL of cell growth medium at a density of 1000 cells per well. The compounds were administered 72 h after seeding. The treatment lasted 7 days.
(§6) The immunofluorescence assay for the quantification of MDR markers was optimized to distinguish cancer cells from stromal cells using a cytokeratin 8/18 (CK8/18) antibody cocktail. The cells were fixed with 4% paraformaldehyde for 20 min at RT and washed three times with PBS using the Wellwash Versa microplate washer (Thermo Fisher Scientific, Waltham, MA, USA). The cells were then blocked with 2% bovine serum albumin (BSA) in PBS for 1 h at RT. […] Co-immunostaining with antibodies against MDR markers was performed to detect the presence of ABCB1, ABCC1, and ABCG2 in both the cancer and stromal cells. […] The secondary antibodies were incubated with the cells at RT for 2 h in the dark. […] Finally, the cells were washed three times with PBS and stored at 4 °C in the dark before imaging.

In assay [2] the test system is ABCB1 expression in cancer cells (CK8/18+). Nature of the assay: Immunofluorescence assay of ABCB1 expression in patient-derived NSCLC cultures. The following applies: 7 days. Here is the method:
as §1, §2, §3, §4, §5, §6

For assay [3], the system named is ABCG2 expression in non-cancer cells (CK8/18-). Description: Immunofluorescence assay of ABCG2 expression in patient-derived NSCLC cultures, non-cancer cells. The settings on record: sample TR58, chemotherapeutics, 7 days. Here is the method: as §1
Upon arrival, the tissue was manually chopped with a surgical blade in a Petri dish under sterile conditions. The samples were cut into 3–5 mm pieces and further dissociated using the Tumor Dissociation Kit (Miltenyi Biotec, Bergisch Gladbach, Germany). The Tumor Dissociation Kit was used to dissociate the cells from the tumor tissue according to the manufacturer’s instructions. The samples were incubated in a 37 °C orbital shaker (KS 4000 ic control, IKA, Königswinter, Germany) at 300 rpm for 90 min. […]
The immunofluorescence assay for the quantification of MDR markers was optimized to distinguish cancer cells from stromal cells using a cytokeratin 8/18 (CK8/18) antibody cocktail. […]

For assay [4], the system named is ABCC1 expression in non-cancer cells (CK8/18-). Nature of the assay: Immunofluorescence assay of ABCC1 expression in patient-derived NSCLC cultures, non-cancer cells. The settings on record: sample TR58, chemotherapeutics, 7 days. Here is the method:
as §1, §2, §3, §4, §5, §6

Setting [5] is: culture TR58, cancer cells (CK8/18+).
Where [6] appears, read: culture TR64, cancer cells (CK8/18+).
[7] abbreviates: culture TR65, cancer cells (CK8/18+).
[8] abbreviates: culture TR84, cancer cells (CK8/18+).
[9] abbreviates: culture TR87, cancer cells (CK8/18+).
The mark [10] stands for this setting: Homo sapiens, 168 h, culture TR58, non-cancer cells (CK8/18-).
The mark [11] stands for this setting: Homo sapiens, 168 h, culture TR64, non-cancer cells (CK8/18-).
Setting [12] is: Homo sapiens, 168 h, culture TR65, non-cancer cells (CK8/18-).
Where [13] appears, read: Homo sapiens, 168 h, culture TR84, non-cancer cells (CK8/18-).
[14] abbreviates: Homo sapiens, 168 h, culture TR87, non-cancer cells (CK8/18-).

As to `N.N.[Cl][Pt][Cl]` [Cisplatin, cisplatin], the IC50 in assay [1] (culture TR58, non-cancer cells (CK8/18-)) worked out at 5100 nM; in assay [1] (culture TR64, non-cancer cells (CK8/18-)), 8260 nM; in assay [1] (culture TR65, non-cancer cells (CK8/18-)) it was 1200 nM; in assay [1] (culture TR84, non-cancer cells (CK8/18-)) it was 789 nM; in assay [1] (culture TR87, non-cancer cells (CK8/18-)), 3380 nM. Besides, the ABCB1 Expression result is recorded as “no change” in assay [2] (setting [5]); “increase (An increase in ABCB1, ABCC1, or ABCG2 expression of at least 20% at a minimum of one concentration is shown in the table.)” in assay [2] (setting [6]); “increase (An increase in ABCB1, ABCC1, or ABCG2 expression of at least 20% at a minimum of one concentration is shown in the table.)” in assay [2] (setting [7]); “increase (An increase in ABCB1, ABCC1, or ABCG2 expression of at least 20% at a minimum of one concentration is shown in the table.)” in assay [2] (setting [8]); “increase (An increase in ABCB1, ABCC1, or ABCG2 expression of at least 20% at a minimum of one concentration is shown in the table.)” in assay [2] (setting [9]). For the same compound, in assay [3], the “ABCG2 expression in CK8/18− cells” value was “increased”.

As for `CC(=O)O[C@@]12CO[C@@H]1C[C@H](O)[C@@]1(C)C(=O)[C@H](O)C3=C(C)[C@@H](OC(=O)[C@H](O)[C@@H](NC(=O)OC(C)(C)C)c4ccccc4)C[C@@](O)([C@@H](OC(=O)c4ccccc4)[C@H]21)C3(C)C` [Docetaxel, docetaxel], the IC50 in assay [1] (setting [10]) turned out to be 1590 nM; in assay [1] (setting [11]) it was 2720 nM; in assay [1] (setting [12]), 461 nM; in assay [1] (setting [13]), 182 nM; in assay [1] (setting [14]), 3050 nM. In addition, the ABCB1 Expression result was “no change” in assay [2] (setting [5]); “increase (An increase in ABCB1, ABCC1, or ABCG2 expression of at least 20% at a minimum of one concentration is shown in the table.)” in assay [2] (setting [6]); “no change” in assay [2] (setting [7]); “increase (An increase in ABCB1, ABCC1, or ABCG2 expression of at least 20% at a minimum of one concentration is shown in the table.)” in assay [2] (setting [8]); “increase (An increase in ABCB1, ABCC1, or ABCG2 expression of at least 20% at a minimum of one concentration is shown in the table.)” in assay [2] (setting [9]). In addition, in assay [4], the “ABCC1 expression in CK8/18− cells” value is “elevated”.

Consider `COc1cc([C@@H]2c3cc4c(cc3[C@@H](O[C@@H]3O[C@@H]5CO[C@@H](C)O[C@H]5[C@H](O)[C@H]3O)[C@H]3COC(=O)[C@H]23)OCO4)cc(OC)c1O` [Etoposide, etoposide], for which the IC50 in assay [1] (setting [10]) worked out at 6490 nM; in assay [1] (setting [11]), 18100 nM; in assay [1] (setting [12]), 2080 nM; in assay [1] (setting [13]), 1010 nM; in assay [1] (setting [14]), 10200 nM. In addition, the ABCB1 Expression result is reported as “no change” in assay [2] (setting [5]); “increase (An increase in ABCB1, ABCC1, or ABCG2 expression of at least 20% at a minimum of one concentration is shown in the table.)” in assay [2] (setting [6]); “increase (An increase in ABCB1, ABCC1, or ABCG2 expression of at least 20% at a minimum of one concentration is shown in the table.)” in assay [2] (setting [7]); “increase (An increase in ABCB1, ABCC1, or ABCG2 expression of at least 20% at a minimum of one concentration is shown in the table.)” in assay [2] (setting [8]); “increase (An increase in ABCB1, ABCC1, or ABCG2 expression of at least 20% at a minimum of one concentration is shown in the table.)” in assay [2] (setting [9]).

Take `CC(=O)O[C@H]1C(=O)[C@@]2(C)[C@H]([C@H](OC(=O)c3ccccc3)[C@]3(O)C[C@H](OC(=O)[C@H](O)[C@@H](NC(=O)c4ccccc4)c4ccccc4)C(C)=C1C3(C)C)[C@]1(OC(C)=O)CO[C@@H]1C[C@@H]2O` [Paclitaxel, paclitaxel]: the IC50 in assay [1] (setting [10]) came out at 1400 nM; in assay [1] (setting [11]) it was 1950 nM; in assay [1] (setting [12]), 1400 nM; in assay [1] (setting [13]) it was 312 nM; in assay [1] (setting [14]), 1870 nM. The ABCB1 Expression result is “increase (An increase in ABCB1, ABCC1, or ABCG2 expression of at least 20% at a minimum of one concentration is shown in the table.)” in assay [2] (setting [5]); “increase (An increase in ABCB1, ABCC1, or ABCG2 expression of at least 20% at a minimum of one concentration is shown in the table.)” in assay [2] (setting [6]); “increase (An increase in ABCB1, ABCC1, or ABCG2 expression of at least 20% at a minimum of one concentration is shown in the table.)” in assay [2] (setting [7]); “increase (An increase in ABCB1, ABCC1, or ABCG2 expression of at least 20% at a minimum of one concentration is shown in the table.)” in assay [2] (setting [8]); “increase (An increase in ABCB1, ABCC1, or ABCG2 expression of at least 20% at a minimum of one concentration is shown in the table.)” in assay [2] (setting [9]). The “ABCC1 expression in CK8/18− cells” value in assay [4] was “elevated”.

As for `Nc1nc2[nH]cc(CCc3ccc(C(=O)N[C@@H](CCC(=O)O)C(=O)O)cc3)c2c(=O)[nH]1` [Pemetrexed, pemetrexed], the IC50 in assay [1] (setting [10]) is over 300000 nM; in assay [1] (setting [11]) it was over 300000 nM; in assay [1] (setting [12]), 25200 nM; in assay [1] (setting [13]), over 300000 nM; in assay [1] (setting [14]) it was over 300000 nM. In addition, the ABCB1 Expression result in assay [2] (setting [5]) is given as “no change”; in assay [2] (setting [6]), “no change”; in assay [2] (setting [7]), “no change”; in assay [2] (setting [8]), “increase (An increase in ABCB1, ABCC1, or ABCG2 expression of at least 20% at a minimum of one concentration is shown in the table.)”; in assay [2] (setting [9]), “increase (An increase in ABCB1, ABCC1, or ABCG2 expression of at least 20% at a minimum of one concentration is shown in the table.)”.

As to `CCC1=C[C@@H]2CN(C1)Cc1c([nH]c3ccccc13)[C@@](C(=O)OC)(c1cc3c(cc1OC)N(C)[C@H]1[C@@](O)(C(=O)OC)[C@H](OC(C)=O)[C@]4(CC)C=CCN5CC[C@]31[C@@H]54)C2` [Vinorelbine], the IC50 in assay [1] (setting [10]) came to 160 nM; in assay [1] (setting [11]), 184 nM; in assay [1] (setting [12]), 32.8 nM; in assay [1] (setting [13]), 33.9 nM; in assay [1] (setting [14]), 361 nM. For the same compound, the ABCB1 Expression result is “no change” in assay [2] (setting [5]); “increase (An increase in ABCB1, ABCC1, or ABCG2 expression of at least 20% at a minimum of one concentration is shown in the table.)” in assay [2] (setting [6]); “increase (An increase in ABCB1, ABCC1, or ABCG2 expression of at least 20% at a minimum of one concentration is shown in the table.)” in assay [2] (setting [7]); “increase (An increase in ABCB1, ABCC1, or ABCG2 expression of at least 20% at a minimum of one concentration is shown in the table.)” in assay [2] (setting [8]); “increase (An increase in ABCB1, ABCC1, or ABCG2 expression of at least 20% at a minimum of one concentration is shown in the table.)” in assay [2] (setting [9]).
